Data published in the supplement of paper PMC6045584.
± gives the standard deviation of the averaged measurements.

What was measured:
MK-1775 = compound: C=CCn1c(=O)c2cnc(Nc3ccc(N4CCN(C)CC4)cc3)nc2n1-c1cccc(C(C)(C)O)n1 [MK-1775]; assay: area under dose-response curve of surviving fraction (unscaled, Aref=0) (surviving fraction x log10(nM)); higher = more resistant; conditions: exposure time: 5 days; dose range 0.5-1000 nM
Method in brief: (§1)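 Tumour cell lines in 384-well plates were exposed for five days to eight inhibitor concentrations from 0.5 to 1000 nM. Viability was read by CellTiter-Glo luminescence, normalised to DMSO-only wells, in three screens per line. Dose-response survival curves were fitted to surviving fractions by 3-parameter logistic regression in the drc R package. Area under the curve is the unscaled activity area (Aref = 0) over log10 dose.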

BLEOMYCIN = compound: Cc1c(N)nc([C@H](CC(N)=O)NC[C@H](N)C(N)=O)nc1C(=O)N[C@H](C(=O)N[C@H](C)[C@@H](O)[C@H](C)C(=O)N[C@H](C(=O)NCCc1nc(-c2nc(C(=O)NCCC[S+](C)C)cs2)cs1)[C@@H](C)O)[C@@H](OC1OC(CO)C(O)C(O)C1OC1OC(CO)C(O)C(OC(N)=O)C1O)c1cnc[nH]1 [BLEOMYCIN]; assay: as above; conditions: exposure time: 5 days; dose range 0.5-1000 nM
Method in brief: as §1

CABOZANTINIB = compound: COc1cc2nccc(Oc3ccc(NC(=O)C4(C(=O)Nc5ccc(F)cc5)CC4)cc3)c2cc1OC [CABOZANTINIB]; assay: as above; conditions: exposure time: 5 days; dose range 0.5-1000 nM
Method in brief: as §1

IMATINIB = compound: Cc1ccc(NC(=O)c2ccc(CN3CCN(C)CC3)cc2)cc1Nc1nccc(-c2cccnc2)n1 [IMATINIB]; assay: surviving fraction relative to DMSO-only wells; higher = less growth inhibition; conditions: exposure time: 5 days
Method in brief: (§2)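 Inhibitors were tested at 0.5, 1, 5, 10, 50, 100, 500 and 1000 nM, applied continuously for five days beginning 24 hours after log-phase tumour cells were seeded at 250–500 per well in 384-well plates. CellTiter-Glo luminescence served as the viability measure, expressed as surviving fraction against the median of DMSO-only wells. Each line, screened three times, was kept only with replicate Pearson r >0.7 and median Z' >0.3.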

AFIMOXIFENE [1] = compound: T1, CC/C(=C(\c1ccc(O)cc1)c1ccc(OCCN(C)C)cc1)c1ccccc1 [AFIMOXIFENE]; assay: as above; conditions: exposure time: 5 days
Method in brief: as §2

AFIMOXIFENE [2] = compound: T1, AFIMOXIFENE; assay: area under dose-response curve of surviving fraction (unscaled, Aref=0) (surviving fraction x log10(nM)); higher = more resistant; conditions: exposure time: 5 days; dose range 0.5-1000 nM
Method in brief: as §1

Test System	area under dose-response curve (MK-1775)	area under dose-response curve (BLEOMYCIN)	area under dose-response curve (CABOZANTINIB)	surviving fraction (IMATINIB; 1 nM)	surviving fraction (IMATINIB; 5 nM)	surviving fraction (IMATINIB; 100 nM)	surviving fraction (IMATINIB; 500 nM)	surviving fraction (IMATINIB; 1000 nM)	surviving fraction (AFIMOXIFENE [1]; 0.5 nM)	surviving fraction (AFIMOXIFENE [1]; 1 nM)	surviving fraction (AFIMOXIFENE [1]; 5 nM)	surviving fraction (AFIMOXIFENE [1]; 10 nM)	surviving fraction (AFIMOXIFENE [1]; 50 nM)	surviving fraction (AFIMOXIFENE [1]; 100 nM)	surviving fraction (AFIMOXIFENE [1]; 500 nM)	surviving fraction (AFIMOXIFENE [1]; 1000 nM)	surviving fraction (IMATINIB; 10 nM)	surviving fraction (IMATINIB; 50 nM)	surviving fraction (IMATINIB; 0.5 nM)	area under dose-response curve (AFIMOXIFENE [2])
MDAMB157 BREAST	2.07	2.5	3.09	1.01 ± 0.028	1.02 ± 0.018	0.939 ± 0.021	0.956 ± 0.018	0.855 ± 0.11	1.04 ± 0.05	1.01 ± 0.062	1.04 ± 0.14	1.02 ± 0.072	1.06 ± 0.022	1.01 ± 0.014	0.942 ± 0.059	0.989 ± 0.12				
MDAMB453 BREAST	2.78		3.43	1.1 ± 0.086	1.13 ± 0.051	1.06 ± 0.034	1.082 ± 0.0067	1.04 ± 0.011	1.09 ± 0.098	1.07 ± 0.07	1.11 ± 0.066	1.17 ± 0.16	1.1 ± 0.068	1.07 ± 0.029	1.07 ± 0.039	1.02 ± 0.026	1.12 ± 0.1	1.18 ± 0.034		
MG63 BONE	2.87	2.35	3.04	1.05 ± 0.029	1.1 ± 0.03	1.08 ± 0.034			1.06 ± 0.04	1.04 ± 0.027	1.1 ± 0.048	1.07 ± 0.051	1.09 ± 0.05	1.05 ± 0.048	1.02 ± 0.036	1.02 ± 0.049	1.09 ± 0.035	1.09 ± 0.053	1.08 ± 0.028	
SAOS2 BONE	2.49	2.59		1.14 ± 0.056		1.2 ± 0.075	1.16 ± 0.029	1.17 ± 0.097	1.18 ± 0.064	1.14 ± 0.068	1.23 ± 0.051	1.18 ± 0.052	1.21 ± 0.034	1.2 ± 0.16	1.12 ± 0.14	0.985 ± 0.042	1.22 ± 0.063	1.22 ± 0.079	1.14 ± 0.031	3.87
SCC003 HEADNECK	2.83	2.6	3.21	1.1 ± 0.037	1.15 ± 0.036	1.18 ± 0.045	1.13 ± 0.062	1.12 ± 0.075	1.127 ± 0.0056	1.14 ± 0.015	1.1 ± 0.091	1.07 ± 0.057	1.13 ± 0.055	1.1 ± 0.091	1.151 ± 0.0068	1.11 ± 0.042		1.09 ± 0.033	1.1 ± 0.07	
SCC36 HEADNECK	2.66	2.48	3.43	1.04 ± 0.18	1.09 ± 0.12		0.886 ± 0.066		1.07 ± 0.16	0.969 ± 0.026	1.13 ± 0.046	1.1 ± 0.047	1.07 ± 0.047	1.1 ± 0.078	0.883 ± 0.06	0.732 ± 0.074		1.11 ± 0.024	1.03 ± 0.11	
SCC90 HEADNECK	2.22	3.23	3.14		1.07 ± 0.011	1.14 ± 0.08	1.17 ± 0.067	1.26 ± 0.082	1.14 ± 0.052	1.12 ± 0.11	1.1 ± 0.045	1.19 ± 0.068	1.12 ± 0.074	1.09 ± 0.059	1.11 ± 0.025	1.05 ± 0.075	1.01 ± 0.073	1.17 ± 0.076		
SG27 HEADNECK		3.29			1.02 ± 0.16	1.17 ± 0.21	1.09 ± 0.18	1.14 ± 0.068	1.09 ± 0.16	1.06 ± 0.14	1.05 ± 0.023	1.02 ± 0.059	1.16 ± 0.063	1 ± 0.23	1.21 ± 0.11	1.1 ± 0.078	1.13 ± 0.088	1.01 ± 0.079		3.58
SG28 HEADNECK	2.63	2.97		1.11 ± 0.12			1.18 ± 0.11	1.14 ± 0.096	1.208 ± 0.0021	1.04 ± 0.057	1.1 ± 0.15	0.965 ± 0.1	1.14 ± 0.1	0.985 ± 0.04	1.12 ± 0.04	1.05 ± 0.088			1.25 ± 0.093	
SG32 HEADNECK	2.43	2.56	3.26		1.2 ± 0.18	1 ± 0.14	1.17 ± 0.052	1.21 ± 0.16	1.09 ± 0.33	1.93 ± 1.3	1.26 ± 0.11	1.18 ± 0.25	1.09 ± 0.093	0.982 ± 0.053	1.12 ± 0.087	1.21 ± 0.2				
SG43 HEADNECK		2.58	2.63	1.07 ± 0.36	0.895 ± 0.2	0.901 ± 0.27	1.11 ± 0.13	1.16 ± 0.33	0.934 ± 0.082	1.06 ± 0.26	1.14 ± 0.34	0.825 ± 0.14	0.903 ± 0.016	1 ± 0.14	1.16 ± 0.12	0.927 ± 0.13	1.03 ± 0.23	1.01 ± 0.2	1.16 ± 0.41	
SIHA CERVIX	2.93		3.04	1.1 ± 0.054		1.17 ± 0.054	1.12 ± 0.076		1.1 ± 0.029	1.07 ± 0.051	1.09 ± 0.072	1.19 ± 0.031	1.15 ± 0.06	1.21 ± 0.032	1.13 ± 0.062	1.09 ± 0.058	1.09 ± 0.065	1.15 ± 0.073	1.1 ± 0.04	3.74
SJSA1 BONE	2.86	2.25	5.44	1.71 ± 0.075	1.64 ± 0.1	1.36 ± 0.01	1.65 ± 0.039	1.33 ± 0.024	1.6 ± 0.021	1.74 ± 0.059	1.65 ± 0.083	1.74 ± 0.087	1.78 ± 0.027	1.52 ± 0.05	1.79 ± 0.059	1.27 ± 0.068	1.83 ± 0.1	0.61 ± 0.12	1.65 ± 0.051	
SNU475 LIVER	2.93	2.51	3.24		1.06 ± 0.036		1.06 ± 0.045		1.06 ± 0.024	1.09 ± 0.055	1.03 ± 0.016	1.04 ± 0.057	1.01 ± 0.022	1.07 ± 0.034	1.01 ± 0.054	1.07 ± 0.062	1.07 ± 0.019	1.09 ± 0.0085	1.04 ± 0.086	
SUM44 BREAST	2.54	3.07	4.12		1.24 ± 0.36		1.26 ± 0.34	1.11 ± 0.23	1.17 ± 0.34	1.22 ± 0.34	1.2 ± 0.26	1.2 ± 0.39	1.3 ± 0.43	1.19 ± 0.36	1.13 ± 0.29	1.08 ± 0.32	1.23 ± 0.28	1.27 ± 0.31	1.3 ± 0.48	
YAMATO SYNOVIAL		3.25	2.65	1.19 ± 0.14	1.28 ± 0.14	1.27 ± 0.15	1.1 ± 0.11	1.05 ± 0.073	1.22 ± 0.14	1.27 ± 0.022	1.37 ± 0.14	1.4 ± 0.037	1.23 ± 0.14	1.28 ± 0.096	1.23 ± 0.066	1.31 ± 0.14	1.26 ± 0.078	1.23 ± 0.054	1.29 ± 0.055	4.25
ZR751 BREAST		3.06		1.15 ± 0.14	1.05 ± 0.1	1.11 ± 0.063	1.13 ± 0.065	1.07 ± 0.14	1.13 ± 0.23	1.21 ± 0.18	1.09 ± 0.21	1.31 ± 0.19	1.09 ± 0.22	1.07 ± 0.17	1.03 ± 0.19	0.993 ± 0.084	1.17 ± 0.23	1.16 ± 0.11	1.23 ± 0.15	3.68
